Source: patent publication US20130310379A1, “MODULATORS OF METHYL MODIFYING ENZYMES, COMPOSITIONS AND USES THEREOF” (CONSTELLATION PHARMACEUTICALS, priority 2010, published 2013)

The compounds below were run against EZH2 (Homo sapiens, UniProt Q15910) (assay: EZH2 assay: rPRC2 with biotinylated oligonucleosome substrates and 3H SAM, FlashPlate scintillation counting, IC50). Conditions: rPRC2, biotinylated oligonucleosome substrates, 3H SAM; read-out: EZH2 IC50.
Type: biochemical
Protocol: Assays were carried out by mixing rPRC2 together with biotinylated oligonucleosome substrates in the presence of the radio-labeled enzyme co-factor, S-adenosyl-L-methionine (^3H SAM) (Perkin Elmer) and monitoring the enzymatically mediated transfer of tritiated methyl groups from ^3H SAM to histone lysine residues. The amount of resulting tritated methylhistone product was measured by first capturing the biotinylated oligonuclesomes in streptavidin (SAV) coated FlashPlates (Perkin Elmer), followed by a wash step to remove un-reacted ^3H SAM, and then counting on a TopCount NXT 384 well plate scintillation counter (Perkin Elmer). The final assay conditions for EZH2 were as follows: 50 mM Tris Buffer pH 8.5, 1 mM DTT, 69 uM Brij-35 detergent, 5.0 mM MgCl2, 0.1 mg/mL BSA, 0.2 uM ^3H SAM, 0.2 uM biotinylated oligonucleosomes, 3.6 uM H3K27me3 peptide and 2 nM EZH2.
Compound IC50 measurements were obtained as follows: Compounds were first dissolved in 100% DMSO as 10 mM stock solutions. […] A 12.5 uL volume of the HMT enzyme, H3K27me3 peptide and oligonucleosome substrate in assay buffer was added to each well of the assay plate using a Multidrop Combi (ThermoFisher). Compounds were pre-incubated with the enzyme for 20 min, followed by initiation of the methyltransferase reaction by addition of 12.5 uL of 3H SAM in assay buffer (final volume=25 uL). The final concentrations of compounds ranged from a top default concentration of 80 uM down to 0.16 uM in ten 2-fold dilution steps. Reactions were carried out for 60 minutes and quenched with 20 uL per well of 1.96 mM SAH, 50 mM Tris PH 8.5, 200 mM EDTA. Stopped reactions were transferred to SAV coated Flashplates (Perkin Elmer), incubated for 120 min, washed with a plate washer, and then read on the TopCount NXT (1.0 min/well) to measure the amount of methylhistone product formed during the reaction. The amount of methylhistone product was compared with the amount of product formed in the 0% and 100% inhibition control wells allowing the calculation of % Inhibition in the presence of the individual compounds at various concentrations. IC50's were computed using a 4 parameter fit non-linear curve fitting software package (XLFIT, part of the database package, ActivityBase (IDBS)) where the four parameters were IC50, Hill slope, pre-transitional baseline (0% INH), and post-transitional baseline (100% INH); with the latter two parameters being fixed to zero and 100%, respectively, by default.

EZH2, sequence (Q15910 whole entry): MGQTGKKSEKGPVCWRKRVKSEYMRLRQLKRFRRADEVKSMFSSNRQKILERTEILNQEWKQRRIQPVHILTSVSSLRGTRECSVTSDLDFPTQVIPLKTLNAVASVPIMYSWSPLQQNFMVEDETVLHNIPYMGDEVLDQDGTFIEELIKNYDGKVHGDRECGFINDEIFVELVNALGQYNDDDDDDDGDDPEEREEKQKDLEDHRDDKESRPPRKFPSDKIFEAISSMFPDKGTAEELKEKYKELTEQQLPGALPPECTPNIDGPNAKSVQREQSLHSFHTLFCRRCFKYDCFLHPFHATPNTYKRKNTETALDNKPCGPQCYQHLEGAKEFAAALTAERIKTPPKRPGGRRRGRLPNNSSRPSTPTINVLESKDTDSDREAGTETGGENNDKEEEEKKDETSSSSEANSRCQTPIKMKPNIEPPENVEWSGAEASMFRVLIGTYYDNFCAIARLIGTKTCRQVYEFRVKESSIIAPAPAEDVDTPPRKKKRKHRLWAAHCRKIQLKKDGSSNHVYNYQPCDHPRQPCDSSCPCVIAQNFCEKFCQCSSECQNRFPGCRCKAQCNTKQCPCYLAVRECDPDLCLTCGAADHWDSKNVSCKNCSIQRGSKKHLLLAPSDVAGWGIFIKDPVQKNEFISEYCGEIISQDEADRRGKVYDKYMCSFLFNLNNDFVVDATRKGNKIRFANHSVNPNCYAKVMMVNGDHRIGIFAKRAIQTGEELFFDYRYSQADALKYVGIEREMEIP
EZH2, sequence (O75530 whole entry partner): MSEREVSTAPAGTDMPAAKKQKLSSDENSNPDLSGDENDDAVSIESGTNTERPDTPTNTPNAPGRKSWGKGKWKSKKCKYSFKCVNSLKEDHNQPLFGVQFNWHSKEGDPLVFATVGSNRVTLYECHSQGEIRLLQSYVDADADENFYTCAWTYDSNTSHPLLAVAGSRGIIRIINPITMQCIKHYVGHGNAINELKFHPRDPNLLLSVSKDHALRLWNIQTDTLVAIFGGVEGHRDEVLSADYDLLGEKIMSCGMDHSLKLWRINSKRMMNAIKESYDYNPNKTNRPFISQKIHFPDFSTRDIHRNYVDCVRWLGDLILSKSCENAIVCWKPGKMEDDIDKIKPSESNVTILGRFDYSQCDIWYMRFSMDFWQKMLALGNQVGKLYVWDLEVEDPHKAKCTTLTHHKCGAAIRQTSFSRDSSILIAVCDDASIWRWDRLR
EZH2, sequence (Q15022 whole entry partner): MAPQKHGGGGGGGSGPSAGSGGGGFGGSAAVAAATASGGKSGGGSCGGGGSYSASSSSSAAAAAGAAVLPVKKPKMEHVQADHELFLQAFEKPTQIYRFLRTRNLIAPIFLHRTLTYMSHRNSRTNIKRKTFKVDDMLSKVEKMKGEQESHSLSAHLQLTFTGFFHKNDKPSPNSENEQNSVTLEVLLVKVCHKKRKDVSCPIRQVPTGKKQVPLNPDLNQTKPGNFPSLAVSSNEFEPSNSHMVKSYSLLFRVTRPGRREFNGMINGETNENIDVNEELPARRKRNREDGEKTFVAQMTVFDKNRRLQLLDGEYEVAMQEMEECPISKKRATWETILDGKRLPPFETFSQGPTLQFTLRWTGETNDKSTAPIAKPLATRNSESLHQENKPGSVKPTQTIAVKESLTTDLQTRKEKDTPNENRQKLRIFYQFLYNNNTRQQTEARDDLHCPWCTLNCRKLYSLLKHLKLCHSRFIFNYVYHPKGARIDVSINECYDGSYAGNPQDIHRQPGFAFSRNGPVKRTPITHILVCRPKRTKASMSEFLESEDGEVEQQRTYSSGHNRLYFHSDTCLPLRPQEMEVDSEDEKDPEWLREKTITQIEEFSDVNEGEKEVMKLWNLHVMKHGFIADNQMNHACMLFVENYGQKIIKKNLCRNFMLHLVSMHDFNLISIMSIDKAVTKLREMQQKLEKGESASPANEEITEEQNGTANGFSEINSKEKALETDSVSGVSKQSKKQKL

Row | SMILES | IC50 [µM]
1 | COc1cc(C(=O)NC2CC(C)(C)NC(C)(C)C2)ccc1COc1cccc(Br)c1 [Compound I-31] | 20 to 80
2 | CC1(C)CC(NC(=O)c2ccc(OC3CCCCC3)cc2)CC(C)(C)N1 [Compound I-147] | 20 to 80
3 | CC1(C)CC(NC(=O)c2ccc(COc3cccc(-c4ccc(N)nc4)c3)cc2)CC(C)(C)N1 [Compound I-1] | < 5
4 | CC1(C)CC(NC(=O)c2ccc(Oc3ccccc3CN3CCCC3)cc2)CC(C)(C)N1 [Compound I-250] | 20 to 80
5 | CCc1cccc(Oc2ccc(C(=O)NC3CC(C)(C)NC(C)(C)C3)cc2)c1 [Compound I-131] | > 80
6 | CCC(C)c1ccccc1Oc1ccc(C(=O)NC2CC(C)(C)NC(C)(C)C2)cc1 (stereo not drawn) [Compound I-170] | 5 to 20
7 | CC1(C)CC(NC(=O)c2ccc(Oc3ccc(F)cc3)cc2)CC(C)(C)N1 [Compound I-86] | > 80
8 | CC1(C)CC(NC(=O)c2ccc(COc3cccc(-c4cnc(N)nc4)c3)cc2)CC(C)(C)N1 [Compound I-3] | < 5
9 | CC1(C)CC(NC(=O)c2ccc(C(O)c3ccccc3)cc2)CC(C)(C)N1 (stereo not drawn) [Compound I-432] | > 80
10 | CC1(C)CC(NC(=O)c2cc(F)c(Oc3ccccc3C#N)c(Br)c2)CC(C)(C)N1 [Compound I-351] | < 5
11 | CC1(C)CC(NC(=O)c2ccc(OCc3ccc([N+](=O)[O-])cc3)cc2)CC(C)(C)N1 [Compound I-81] | > 80
12 | CC1(C)CC(NC(=O)Nc2ccc(C(C)(C)C)cc2Br)CC(C)(C)N1 [Compound I-143] | > 80
13 | Cc1ncccc1-c1cccc(OCc2ccc(C(=O)NC3CC(C)(C)NC(C)(C)C3)cc2)c1 [Compound I-58] | 20 to 80
14 | CC1(C)CC(NC(=O)c2ccc(Oc3ccccc3F)cc2)CC(C)(C)N1 [Compound I-40] | 20 to 80
15 | CC1(C)CC(NC(=O)c2ccc(COc3cccc(-c4ccc(NCCN5CCOCC5)nc4)c3)cc2)CC(C)(C)N1 [Compound I-129] | > 80
16 | Cc1cc(Oc2ccccc2)ccc1C(=O)NC1CC(C)(C)NC(C)(C)C1 [Compound I-124, 2-methyl-4-phenoxy-N-(2,2,6,6-tetramethylpiperidin-4-yl)-benzamide] | > 80
17 | CC1(C)CC(NC(=O)c2ccc(COc3ccccn3)cc2)CC(C)(C)N1 [Compound I-80] | > 80
18 | CC1(C)CC(NC(=O)c2ccc(COc3ccncc3)cc2)CC(C)(C)N1 [Compound I-112] | > 80
19 | CC1(C)CC(NC(=O)c2ccc(OCc3ccccc3)cc2)CC(C)(C)N1 [Compound I-75] | > 80
20 | Cc1ccc(-c2cccc(OCc3ccc(C(=O)NC4CC(C)(C)NC(C)(C)C4)cc3)c2)cn1 [Compound I-14] | 5 to 20
21 | CC1(C)CC(NC(=O)c2ccc(Cc3ccccc3)cc2)CC(C)(C)N1 [Compound I-127, 4-Benzyl-N-(2,2,6,6-tetramethylpiperidin-4-yl)benzamide] | > 80
22 | Cc1ccccc1Oc1ccc(C(=O)NC2CC(C)(C)NC(C)(C)C2)cc1 [Compound I-48] | 20 to 80
23 | Cc1cccc(C)c1OCc1ccc(C(=O)NC2CC(C)(C)NC(C)(C)C2)cc1 [Compound I-23] | 20 to 80
24 | CC1CCCCC1Oc1ccc(C(=O)NC2CC(C)(C)NC(C)(C)C2)cc1 (stereo not drawn) [Compound I-298] | > 80
25 | CC1(C)CC(NC(=O)c2ccc(CCc3ccccc3)cc2)CC(C)(C)N1 [Compound I-241] | > 80
26 | Cc1ccccc1OCc1ccc(C(=O)NC2CC(C)(C)NC(C)(C)C2)cc1 [Compound I-74] | > 80
27 | COCc1ccccc1Oc1ccc(C(=O)NC2CC(C)(C)NC(C)(C)C2)cc1 [Compound I-248] | 20 to 80
28 | CC1(C)CC(NC(=O)c2ccc(Oc3cccc4ncccc34)cc2)CC(C)(C)N1 [Compound I-222] | > 80

Other lines, results leading:

Row | IC50 [µM] | SMILES
29 | < 5 | CC(Cc1cccc(Oc2ccc(C(=O)NC3CC(C)(C)NC(C)(C)C3)cc2Cl)c1C#N)C(N)=O (stereo not drawn) [Compound I-559]
30 | < 5 | CC1(C)CC(NC(=O)c2ccc(Oc3cccc(-c4cncc(F)c4)c3C#N)c(Cl)c2)CC(C)(C)N1 [Compound I-528]
31 | < 5 | CC1(C)CC(NC(=O)c2ccc(Oc3cccc(-c4cncs4)c3C#N)c(Cl)c2)CC(C)(C)N1 [Compound I-371]
32 | > 80 | CNCc1cccc(Oc2ccc(C(=O)NC3CC(C)(C)NC(C)(C)C3)cc2Cl)c1 [Compound I-425]
33 | < 5 | CC1(C)CC(NC(=O)c2ccc(-n3ccc4c(O)cccc43)c(Cl)c2)CC(C)(C)N1 [Compound I-492]
34 | < 5 | CC1(C)CC(NC(=O)c2ccc(Oc3cccc(-c4cnn(CC(N)=O)c4)c3C#N)c(Cl)c2)CC(C)(C)N1 [Compound I-386]
35 | 20 to 80 | CC1(C)CC(NC(=O)c2ccc(Oc3ccccc3C#N)cc2Cl)CC(C)(C)N1 [Compound I-174]
36 | < 5 | CC1(C)CC(NC(=O)c2ccc(Oc3ccccc3-c3nccs3)c(Cl)c2)CC(C)(C)N1 [Compound I-278]
37 | > 80 | CC1(C)CC(NC(=O)c2ccc(Oc3cccc(C(=O)O)c3)c(Cl)c2)CC(C)(C)N1 [Compound I-354]
38 | 20 to 80 | Cc1noc(C)c1-c1cc(C(=O)NC2CC(C)(C)NC(C)(C)C2)ccc1Oc1ccccc1C#N [Compound I-214]
39 | > 80 | CC(=O)N1C(C)(C)CC(NC(=O)c2ccc(Oc3ccccc3C#N)c(Cl)c2)CC1(C)C [Compound I-290]
40 | < 5 | CC1(C)CC(NC(=O)c2ccc(Oc3cccc(C4=CCOCC4)c3C#N)c(Cl)c2)CC(C)(C)N1 [Compound I-529]
41 | < 5 | CC1(C)CC(NC(=O)c2ccc(Oc3cc(Br)ccc3C#N)c(Cl)c2)CC(C)(C)N1 [Compound I-255]
42 | < 5 | CC1(C)CC(NC(=O)c2ccc(Oc3ncccc3C#N)c(Br)c2)CC(C)(C)N1 [Compound I-220]
43 | 5 to 20 | CC1(C)CC(NC(=O)c2ccc(Oc3ccccc3C#N)cn2)CC(C)(C)N1 [Compound I-205]
44 | 20 to 80 | CNC(=O)c1ccccc1Oc1ccc(C(=O)NC2CC(C)(C)NC(C)(C)C2)cc1Cl [Compound I-285]
45 | 20 to 80 | CC1(C)CC(NC(=O)c2ccc(Oc3cccc(-c4ccnnc4)c3C#N)c(Cl)c2)CC(C)(C)[S+]1[O-] (stereo not drawn) [Compound I-518]
46 | < 5 | Cn1cc(-c2ccccc2Oc2ccc(C(=O)NC3CC(C)(C)NC(C)(C)C3)cc2Cl)nn1 [Compound I-363]

Row | IC50 [µM] | SMILES
47 | < 5 | Cc1cc(C(=O)NC2CC(C)(C)NC(C)(C)C2)ccc1Oc1cccc(-c2cccnc2)c1C#N [Compound I-261]
48 | 5 to 20 | CC1(C)CC(NC(=O)c2ccc(Oc3cccc(CN4CCCCC4=O)c3)c(Cl)c2)CC(C)(C)N1 [Compound I-446]
49 | 5 to 20 | CC1(C)CC(NC(=O)c2ccc(Oc3ccccc3C3CCNCC3)c(Cl)c2)CC(C)(C)N1 [Compound I-230]
50 | < 5 | CC1(C)CC(NC(=O)c2ccc(Oc3cccc(-c4ccc(C(N)=O)nc4)c3C#N)c(Cl)c2)CC(C)(C)N1 [Compound I-527]
51 | < 5 | CC1(C)CC(NC(=O)c2ccc(Oc3ccccc3C#N)c(-c3ccccc3)c2)CC(C)(C)N1 [Compound I-197]
52 | > 80 | CC1(C)CC(NC(=O)c2ccc(-n3cccn3)c(Cl)c2)CC(C)(C)N1 [Compound I-496]
53 | < 5 | CC1(C)CC(NC(=O)c2ccc(Oc3cccc(-c4cnc(N)nc4)c3C#N)c(Cl)c2)CC(C)(C)N1 [Compound I-538]
54 | < 5 | CC1(C)CC(NC(=O)c2ccc(Oc3ccccc3-c3ccc(N)nc3)c(Cl)c2)CC(C)(C)N1 [Compound I-227]
55 | < 5 | CC(=O)N1CCC(c2cccc(Oc3ccc(C(=O)NC4CC(C)(C)NC(C)(C)C4)cc3Cl)c2C#N)CC1 [Compound I-537]
56 | < 5 | Cn1cc(-c2cccc(Oc3ccc(C(=O)NC4CC(C)(C)NC(C)(C)C4)cc3Cl)c2C#N)ccc1=O [Compound I-476]
57 | 20 to 80 | Cc1cc(C(=O)NC2CC(C)(C)NC(C)(C)C2)ccc1Oc1ccccc1 [Compound I-24]
58 | > 80 | CC1(C)CC(NC(=O)c2ccc(N3CC(c4ccccc4)CC3=O)c(Cl)c2)CC(C)(C)N1 (stereo not drawn) [Compound I-396]
59 | < 5 | CC1(C)CC(NC(=O)c2ccc(Oc3ccccc3C#N)c(-c3cn[nH]c3)c2)CC(C)(C)N1 [Compound I-213]
60 | > 80 | CC1(C)CC(NC(=O)c2ccc(OC(C#N)c3ccccc3)c(Cl)c2)CC(C)(C)N1 (stereo not drawn) [Compound I-421]
61 | < 5 | CC1(C)CC(NC(=O)c2ccc(Oc3cccc(-c4cnn(CC(=O)O)c4)c3C#N)c(Cl)c2)CC(C)(C)N1 [Compound I-374]
62 | 20 to 80 | N#Cc1c(Oc2ccc(C(=O)NC3CCN(CCO)CC3)cc2Cl)cccc1-c1ccnnc1 [Compound I-474]
63 | < 5 | Cc1cncc(-c2ccccc2Oc2ccc(C(=O)NC3CC(C)(C)NC(C)(C)C3)cc2Cl)c1 [Compound I-296]
